Experimental data: ChEMBL document CHEMBL1201862, “PubChem BioAssay data set” (2004)
Activity calls are given as the source filed them.

Columns and labels:
[1] = molecular target: T1, Histone-lysine N-methyltransferase NSD2 (Homo sapiens, UniProt O96028); assay type: biochemical
T1 sequence (O96028 whole entry): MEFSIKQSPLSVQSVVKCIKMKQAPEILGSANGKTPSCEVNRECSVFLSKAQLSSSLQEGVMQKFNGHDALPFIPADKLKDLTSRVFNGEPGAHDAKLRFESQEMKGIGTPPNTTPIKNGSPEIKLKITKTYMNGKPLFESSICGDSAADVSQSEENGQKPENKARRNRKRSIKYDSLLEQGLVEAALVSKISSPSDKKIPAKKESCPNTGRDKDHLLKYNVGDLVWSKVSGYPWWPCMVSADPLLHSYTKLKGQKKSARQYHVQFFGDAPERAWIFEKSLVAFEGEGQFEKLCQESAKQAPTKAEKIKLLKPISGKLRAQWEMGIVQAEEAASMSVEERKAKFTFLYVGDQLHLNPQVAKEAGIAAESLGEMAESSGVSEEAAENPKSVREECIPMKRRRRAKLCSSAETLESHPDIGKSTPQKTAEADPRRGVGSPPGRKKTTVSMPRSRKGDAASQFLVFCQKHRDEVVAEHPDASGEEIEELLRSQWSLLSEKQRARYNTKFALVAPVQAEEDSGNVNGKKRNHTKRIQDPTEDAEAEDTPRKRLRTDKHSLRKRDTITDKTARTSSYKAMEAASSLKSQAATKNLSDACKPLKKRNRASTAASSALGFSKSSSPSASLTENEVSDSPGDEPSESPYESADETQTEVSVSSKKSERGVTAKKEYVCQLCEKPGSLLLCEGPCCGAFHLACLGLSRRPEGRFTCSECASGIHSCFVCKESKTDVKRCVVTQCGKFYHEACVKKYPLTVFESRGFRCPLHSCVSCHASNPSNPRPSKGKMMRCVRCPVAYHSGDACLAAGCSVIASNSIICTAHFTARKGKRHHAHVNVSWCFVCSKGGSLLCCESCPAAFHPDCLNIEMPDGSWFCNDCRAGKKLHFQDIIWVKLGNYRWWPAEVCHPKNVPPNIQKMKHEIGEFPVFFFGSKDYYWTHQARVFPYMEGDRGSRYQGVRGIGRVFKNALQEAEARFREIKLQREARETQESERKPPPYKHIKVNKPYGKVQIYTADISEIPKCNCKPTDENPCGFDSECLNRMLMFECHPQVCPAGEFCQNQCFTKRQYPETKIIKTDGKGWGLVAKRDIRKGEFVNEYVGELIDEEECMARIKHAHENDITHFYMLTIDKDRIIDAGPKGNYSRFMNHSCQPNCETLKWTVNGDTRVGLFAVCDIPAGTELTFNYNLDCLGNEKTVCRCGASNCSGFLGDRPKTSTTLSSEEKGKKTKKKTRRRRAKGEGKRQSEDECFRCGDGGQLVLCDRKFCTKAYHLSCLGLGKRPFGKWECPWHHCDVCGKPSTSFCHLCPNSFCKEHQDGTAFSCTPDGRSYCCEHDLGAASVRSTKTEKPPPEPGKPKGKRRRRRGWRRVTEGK

[2] = molecular target: T2, RNA-binding protein pos-1 (Caenorhabditis elegans, UniProt G5EF15); test: inhibitors of POS-1/mex-3 RNA binding, dose response, biochemical, fluorescence polarization (AID 1964);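 note: purified POS-1 fused to maltose binding protein made in E. coli; potency of compounds blocking POS-1 binding to fluorescent RNA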
T2 sequence (G5EF15 whole entry): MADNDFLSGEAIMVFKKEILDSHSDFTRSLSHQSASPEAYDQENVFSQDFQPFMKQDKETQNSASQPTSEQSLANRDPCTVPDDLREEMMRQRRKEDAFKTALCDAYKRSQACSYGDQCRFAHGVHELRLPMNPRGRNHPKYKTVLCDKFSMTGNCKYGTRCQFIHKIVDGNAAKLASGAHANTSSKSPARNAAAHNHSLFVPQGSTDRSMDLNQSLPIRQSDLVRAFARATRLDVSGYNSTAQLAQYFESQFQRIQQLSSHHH

[3] = molecular target: T3, Calpain-2 catalytic subunit (Sus scrofa, UniProt P43367); test: pig calpain II inhibitor potency, dose response, biochemical, fluorogenic peptide substrate (AID 1420); assay type: functional
T3 sequence (P43367 whole entry): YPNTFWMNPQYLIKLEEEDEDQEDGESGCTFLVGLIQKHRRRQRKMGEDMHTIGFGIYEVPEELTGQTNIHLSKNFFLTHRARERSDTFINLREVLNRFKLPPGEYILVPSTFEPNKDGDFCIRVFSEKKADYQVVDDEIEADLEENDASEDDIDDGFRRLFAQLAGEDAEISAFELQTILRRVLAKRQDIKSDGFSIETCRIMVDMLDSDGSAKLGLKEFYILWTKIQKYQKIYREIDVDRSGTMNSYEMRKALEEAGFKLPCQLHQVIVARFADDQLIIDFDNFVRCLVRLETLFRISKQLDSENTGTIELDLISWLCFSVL

[4] = molecular target: Phospholipase A2 (Homo sapiens, UniProt P04054); assay type: functional;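 note: confirmatory dose-response counterscreen on phospholipase A2, testing hits that came from an ultra-high-throughput screen for ATG4B inhibitors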
[5] = molecular target: T4, Zinc finger protein mex-5 (Caenorhabditis elegans, UniProt Q9XUB2); test: MEX-5/TCR-2 RNA interaction inhibitors, dose response, biochemical, C. elegans, fluorescence polarization (AID 1960)
T4 sequence (Q9XUB2 whole entry): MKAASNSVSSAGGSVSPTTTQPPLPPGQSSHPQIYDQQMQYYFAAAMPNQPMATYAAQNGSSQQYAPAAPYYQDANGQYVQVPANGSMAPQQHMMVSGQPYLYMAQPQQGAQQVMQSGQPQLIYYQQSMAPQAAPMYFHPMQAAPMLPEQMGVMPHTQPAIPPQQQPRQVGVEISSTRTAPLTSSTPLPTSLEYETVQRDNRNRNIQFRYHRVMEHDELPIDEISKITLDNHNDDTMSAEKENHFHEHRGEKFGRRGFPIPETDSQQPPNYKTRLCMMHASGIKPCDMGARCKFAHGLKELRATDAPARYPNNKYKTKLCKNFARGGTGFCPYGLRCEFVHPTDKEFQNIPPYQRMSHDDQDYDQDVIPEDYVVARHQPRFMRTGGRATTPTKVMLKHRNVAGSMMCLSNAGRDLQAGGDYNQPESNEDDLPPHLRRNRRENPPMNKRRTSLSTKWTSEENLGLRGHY

[6] = molecular target: T5, Cysteine protease ATG4B (Homo sapiens, UniProt Q9Y4P1); assay type: functional;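 note: Fluorescence-based dose-response confirmation assay measuring inhibition of ATG4B activity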
T5 sequence (Q9Y4P1 whole entry): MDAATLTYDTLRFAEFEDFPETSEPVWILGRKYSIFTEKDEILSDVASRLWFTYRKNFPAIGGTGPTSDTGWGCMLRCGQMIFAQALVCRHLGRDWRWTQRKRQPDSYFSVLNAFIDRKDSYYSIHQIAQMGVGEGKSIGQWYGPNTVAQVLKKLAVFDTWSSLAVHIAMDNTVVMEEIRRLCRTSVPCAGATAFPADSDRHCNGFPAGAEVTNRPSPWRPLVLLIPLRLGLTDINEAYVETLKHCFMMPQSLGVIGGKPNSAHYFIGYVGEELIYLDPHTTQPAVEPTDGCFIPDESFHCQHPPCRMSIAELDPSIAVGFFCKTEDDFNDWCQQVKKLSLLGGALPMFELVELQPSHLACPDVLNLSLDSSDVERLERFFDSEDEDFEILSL

[7] = molecular target: T6, Tyrosine-protein phosphatase non-receptor type 11 (Homo sapiens, UniProt Q06124); test: SHP2 phosphatase inhibition, dose response, selectivity assay for STEP inhibitor project, biochemical (AID 602367); assay type: functional; conditions: read-out: IC50_Mean
T6 sequence (Q06124 whole entry): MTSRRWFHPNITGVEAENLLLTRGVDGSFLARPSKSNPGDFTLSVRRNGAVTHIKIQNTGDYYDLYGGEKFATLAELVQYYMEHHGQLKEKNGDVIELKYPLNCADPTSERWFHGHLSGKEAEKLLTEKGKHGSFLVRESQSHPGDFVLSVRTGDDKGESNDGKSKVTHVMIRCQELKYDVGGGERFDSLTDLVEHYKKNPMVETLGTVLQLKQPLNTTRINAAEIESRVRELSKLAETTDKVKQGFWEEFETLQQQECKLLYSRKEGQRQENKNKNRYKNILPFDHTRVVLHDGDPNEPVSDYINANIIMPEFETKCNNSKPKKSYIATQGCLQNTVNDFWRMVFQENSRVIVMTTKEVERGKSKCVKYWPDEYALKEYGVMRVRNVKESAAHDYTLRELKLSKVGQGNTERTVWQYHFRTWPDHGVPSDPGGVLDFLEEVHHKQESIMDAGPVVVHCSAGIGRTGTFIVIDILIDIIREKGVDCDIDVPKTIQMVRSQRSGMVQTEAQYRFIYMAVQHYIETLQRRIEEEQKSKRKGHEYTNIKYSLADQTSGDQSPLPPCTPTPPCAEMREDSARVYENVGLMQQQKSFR

[8] = molecular target: T7, Tyrosine-protein phosphatase non-receptor type 5 (Homo sapiens, UniProt P54829); test: STEP phosphatase inhibitors, confirmation, biochemical, fluorescence intensity, uHTS hits (AID 602372); assay type: functional; conditions: read-out: IC50_Mean
T7 sequence (P54829 whole entry): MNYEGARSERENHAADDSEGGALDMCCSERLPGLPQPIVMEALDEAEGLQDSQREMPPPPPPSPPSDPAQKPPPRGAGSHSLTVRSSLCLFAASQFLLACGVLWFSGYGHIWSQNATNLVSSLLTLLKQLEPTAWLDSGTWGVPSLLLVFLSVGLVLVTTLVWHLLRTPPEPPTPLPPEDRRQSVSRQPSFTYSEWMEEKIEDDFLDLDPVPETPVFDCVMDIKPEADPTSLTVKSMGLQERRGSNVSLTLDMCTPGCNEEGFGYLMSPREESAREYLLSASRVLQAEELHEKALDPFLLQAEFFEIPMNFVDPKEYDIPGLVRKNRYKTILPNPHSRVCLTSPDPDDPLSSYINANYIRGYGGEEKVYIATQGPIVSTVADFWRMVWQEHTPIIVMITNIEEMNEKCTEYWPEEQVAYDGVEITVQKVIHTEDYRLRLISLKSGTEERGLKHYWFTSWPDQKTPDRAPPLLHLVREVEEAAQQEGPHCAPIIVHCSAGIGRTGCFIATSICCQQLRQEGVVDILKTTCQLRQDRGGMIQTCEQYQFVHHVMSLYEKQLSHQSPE

[9] = molecular target: Dual specificity protein phosphatase 3 (Homo sapiens, UniProt P51452); test: VHR phosphatase inhibition, dose response, selectivity assay for STEP inhibitor project, biochemical (AID 602374); assay type: functional; conditions: read-out: IC50_Mean
[10] = molecular target: Melanocortin receptor 4 (Homo sapiens, UniProt P32245); assay type: functional, cell-based;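 note: Cell-based assay with luminescence read-out, confirmatory dose-response testing for agonist activity of biased ligands at MC4R; human U2OS cells with tagged receptor and beta-arrestin; potency of agonists that increase receptor coupling to beta-arrestin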
[11] = molecular target: FAD-linked sulfhydryl oxidase ALR (Homo sapiens, UniProt P55789); test: inhibitors of human ALR sulfhydryl oxidase, dose response, biochemical, H2O2 detection, luminescence, cherry-pick (AID 493248)
[12] = molecular target: T8, Sentrin-specific protease 1 (Homo sapiens, UniProt Q9P0U3); test: Dose response confirmation of small molecule inhibitors of the catalytic domain of the SUMO protease, SENP1 in a FRET assay.; assay type: functional; conditions: read-out: IC50_Mean
T8 sequence (Q9P0U3 whole entry): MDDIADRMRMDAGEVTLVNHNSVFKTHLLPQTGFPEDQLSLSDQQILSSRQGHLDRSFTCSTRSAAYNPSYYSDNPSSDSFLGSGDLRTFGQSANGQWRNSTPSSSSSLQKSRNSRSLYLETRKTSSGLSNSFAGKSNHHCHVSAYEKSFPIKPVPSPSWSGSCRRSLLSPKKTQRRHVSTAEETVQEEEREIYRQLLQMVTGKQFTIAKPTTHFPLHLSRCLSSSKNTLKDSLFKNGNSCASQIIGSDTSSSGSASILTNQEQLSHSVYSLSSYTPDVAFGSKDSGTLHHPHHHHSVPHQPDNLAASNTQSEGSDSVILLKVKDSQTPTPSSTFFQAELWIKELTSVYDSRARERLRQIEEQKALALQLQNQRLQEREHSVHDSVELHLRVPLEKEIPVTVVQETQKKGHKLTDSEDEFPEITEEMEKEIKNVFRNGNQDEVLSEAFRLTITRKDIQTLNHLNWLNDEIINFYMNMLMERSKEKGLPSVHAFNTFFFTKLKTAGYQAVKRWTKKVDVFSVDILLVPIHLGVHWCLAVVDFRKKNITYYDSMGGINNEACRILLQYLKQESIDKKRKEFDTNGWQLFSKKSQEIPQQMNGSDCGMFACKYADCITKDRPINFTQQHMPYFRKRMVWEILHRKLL

[13] = molecular target: Glucose-6-phosphate 1-dehydrogenase (Homo sapiens, UniProt P11413); test: human G6PD enzyme inhibitors, dose response, selectivity assay for P. falciparum G6PD inhibitor project, biochemical, fluorescence (AID 504792); assay type: functional
[14] = molecular target: T9, Low molecular weight phosphotyrosine protein phosphatase (Homo sapiens, UniProt P24666); assay type: functional; conditions: read-out: IC50_Mean;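 note: Dose-response confirmation assay measuring inhibition of LMPTP enzyme activity by fluorescence intensity read-out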
T9 sequence (P24666 whole entry): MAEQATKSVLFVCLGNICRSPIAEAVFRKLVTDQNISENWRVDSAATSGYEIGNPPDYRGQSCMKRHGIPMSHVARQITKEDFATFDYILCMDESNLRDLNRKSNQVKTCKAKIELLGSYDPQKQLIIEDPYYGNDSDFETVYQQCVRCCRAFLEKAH

[15] = tested on: P388/ADR; test: cells; assay type: functional; conditions: Mus musculus

Sequence of Melanocortin receptor 4 (P32245 whole entry): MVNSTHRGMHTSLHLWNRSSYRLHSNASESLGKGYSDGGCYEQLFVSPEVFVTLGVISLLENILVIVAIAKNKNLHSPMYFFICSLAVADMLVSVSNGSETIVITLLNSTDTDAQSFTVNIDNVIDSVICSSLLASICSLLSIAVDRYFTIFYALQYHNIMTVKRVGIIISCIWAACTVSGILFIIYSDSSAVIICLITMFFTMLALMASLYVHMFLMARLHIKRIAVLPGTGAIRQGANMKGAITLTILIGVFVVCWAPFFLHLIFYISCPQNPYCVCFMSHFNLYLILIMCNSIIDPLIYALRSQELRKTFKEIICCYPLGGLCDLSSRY
Sequence of Dual specificity protein phosphatase 3 (P51452 whole entry): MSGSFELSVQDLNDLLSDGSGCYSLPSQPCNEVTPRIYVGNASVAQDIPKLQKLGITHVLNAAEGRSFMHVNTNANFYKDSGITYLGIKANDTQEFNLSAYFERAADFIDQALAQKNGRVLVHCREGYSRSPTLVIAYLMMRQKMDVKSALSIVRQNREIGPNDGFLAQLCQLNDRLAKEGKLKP
Sequence of Glucose-6-phosphate 1-dehydrogenase (P11413 whole entry): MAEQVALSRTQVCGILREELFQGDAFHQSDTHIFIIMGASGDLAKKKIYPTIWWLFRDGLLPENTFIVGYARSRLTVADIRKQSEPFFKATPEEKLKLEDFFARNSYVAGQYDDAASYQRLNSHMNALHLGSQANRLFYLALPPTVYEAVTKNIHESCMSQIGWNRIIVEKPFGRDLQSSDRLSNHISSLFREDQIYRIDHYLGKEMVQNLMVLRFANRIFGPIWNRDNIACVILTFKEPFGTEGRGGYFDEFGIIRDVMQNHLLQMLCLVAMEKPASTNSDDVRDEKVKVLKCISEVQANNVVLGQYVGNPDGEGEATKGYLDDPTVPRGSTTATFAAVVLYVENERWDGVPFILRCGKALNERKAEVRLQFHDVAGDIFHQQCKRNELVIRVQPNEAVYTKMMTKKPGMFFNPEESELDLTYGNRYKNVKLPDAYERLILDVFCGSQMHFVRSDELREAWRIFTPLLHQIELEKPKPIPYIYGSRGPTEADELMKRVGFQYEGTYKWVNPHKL
Sequence of Phospholipase A2 (P04054 whole entry): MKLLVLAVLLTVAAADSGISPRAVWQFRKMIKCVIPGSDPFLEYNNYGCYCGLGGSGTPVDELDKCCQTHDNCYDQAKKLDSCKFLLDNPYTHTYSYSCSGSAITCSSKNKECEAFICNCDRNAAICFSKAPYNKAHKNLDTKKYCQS
Sequence of FAD-linked sulfhydryl oxidase ALR (P55789 whole entry, the tested form may be a part): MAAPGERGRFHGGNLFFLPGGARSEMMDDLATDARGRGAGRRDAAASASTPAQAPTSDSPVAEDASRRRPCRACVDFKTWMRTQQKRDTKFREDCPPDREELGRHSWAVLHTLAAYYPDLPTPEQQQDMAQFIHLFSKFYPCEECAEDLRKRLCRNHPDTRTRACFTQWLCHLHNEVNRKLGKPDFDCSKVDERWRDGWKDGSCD

`Cc1ccccc1NC1=NC(=O)/C(=C/c2cccn2-c2cccc(C(=O)O)c2)S1` was tested, and the AC50 [1] was > 20 µM (inactive), the EC50 [2] was > 300 µM (not active) and the IC50 [3] was 1.09 µM (not active). The IC50 [4] was 8.6 µM (active), the EC50 [5] was 70 µM (active) and the IC50 [6] was 10.2 µM (active).

`O=C(NCCCn1ccnc1)C(Cc1ccccc1)N1C(=O)c2ccccc2C1=O` (stereo unspecified) was tested, and the IC50 [7] was 11.8 µM (active), the IC50 [8] was 36.1 µM (inactive) and the IC50 [9] was 3.08 µM (active).

With `Cc1ccc(C(=O)NCCNc2nc3cc(C)c(C)cc3cc2C)cc1` the EC50 [10] was > 89.2 µM (inactive).

In the case of `O=C(CCN1C(=O)/C(=C/C=C/c2ccccc2)SC1=S)Nc1ccccn1`, the EC50 [10] was > 89.2 µM (inactive).

`Nc1cc([N+](=O)[O-])ccc1Nc1ccccc1` was tested, and the AC50 [11] was 509 nM (active) and the IC50 [12] was 37.8 µM (inactive).

For `COc1ccc2c(c1)CCc1c(C(=O)Nc3ccn(Cc4ccc(C)cc4)n3)noc1-2`, the EC50 [10] was > 89.2 µM (inactive).

`Cn1c(=O)[nH]c(=O)c2c1nc(SCCN1CCCCC1)n2CCCc1ccccc1` was tested, and the IC50 [13] was > 80 µM (inactive), the IC50 [7] was 0.599 µM (active) and the IC50 [8] was 34.9 µM (inactive). For the same molecule, the IC50 [9] was 0.57 µM (active).

In the case of `CSc1sc(-c2nnc(S)n2C)c2c1C=CCC2`, the IC50 [14] was 38.2 µM (inactive).

With `COCCNC(=O)c1cccc2c1C(=O)c1ccc(N3CCOCC3)cc1S2(=O)=O` the IC50 [12] was 14.1 µM (active).

With `COc1cccc2c1C(=O)c1c(O)c3c(c(O)c1C2=O)C[C@@](O)(C(C)=O)C[C@@H]3OC1CC(O)C(O)C(C)O1` (stereo partly specified) the GI50 [15] was 293 nM (active).
